{"source": "patent US5690954A", "about": "“Enhanced uptake drug delivery system having microspheres containing an active drug and a bioavailability improving material” (priority 1987, dated 1997)", "molecules": {"B1": {"name": "CCK: CCK (peptide, UniProt P06307 21-115, looked up)", "Cholecystokinin": "QPVPPADPAGSGLQRAEEAPRRQLRVSQRTDGESRAHLGALLARYIQQARKAPSGRMSIVKNLQNLDPSHRISDRDYMGWMDFGRRSAEEYEYPS"}}, "key": {"[1]": {"conditions": "nasal, cited from earlier work"}, "[2]": {"conditions": "intranasal, simple solution, versus intravenous; cited from earlier work"}, "[3]": {"test": "hGH nasal, in situ rat model (ELISA)", "type": "in vivo, male Wistar rats", "procedure": "For all experiments biosynthetic hGH was used.\nAs before the experiments were performed using the rat in situ model described by Hirai and modified by Fisher.\nNon-fasted male Wistar rats of about 200 g were divided into groups of 4 and anaesthetized using an i.p. injection of 0.35 ml of pentobarbitone (60 mg/ml).\nThree different hGH preparations were administered to the rats namely a 10 mg/ml solution of hGH in potassium phosphate buffer (1/75M), pH=7.2, as before with the addition of 0.05% LPC and as before with the addition of 0.5% LPC.\n20 μl (1 mg/kg) of either of the three preparations were administered intranasally by means of a plastic tubing.\nAll experiments were performed in replicate. Blood samples, 20 drops were collected and kept on ice at times 0, 5, 10, 20, 30, 40, 50, 60, 90, 120, 180, 240 and 300 min after the application. The plasma was separated and stored at -20° C. until analysis."}, "[4]": {"conditions": "in vivo"}, "[5]": {"test": "Bioavailability enhancement by microspheres plus bioavailability increasing material (general statement)", "source_text": "The material selected for these studies has been lysophosphatidylcholine (described above)."}, "[6]": {"conditions": "sheep, in vivo, 5 mg/kg", "procedure": "Cross-bred (Suffolk and Texel) sheep were divided into groups of 3 and 2. The mean weight of the sheep was about 40 kg.\nThe animals were not fasted prior to the administration of gentamicin. […] The catheter was removed upon completion of the study. […] The sedation lasted about 3 minutes. The animals that received gentamicin by the IV route were also sedated.\nThe first group of sheep (n=2) was given 0.25 ml of gentamicin solution (386 mg/ml) (5.0 mg/kg) into each nostril. The second group (n=3) received 0.25 ml of gentamicin solution (386 mg/ml) (5.0 mg/kg) containing 2 mg/ml LPC into each nostril. The third group (n=3) received 5.0 mg/kg gentamicin and 0.2 mg/kg LPC in combination with starch microspheres (1.9 mg gentamicin-/mg starch microspheres). The last group of sheep (n=3) was given 2 mg/kg gentamicin administered intravenously as a solution (40 mg/ml) through the jugular vein. Blood samples (2 ml) were collected through the jugular vein at 0, 8, 16, 24, 32, 45, 60, 90, 120, 180 and 240 min after drug administration. The serum was separated by centrifugation and the samples stored at -20° C. awaiting analysis. No heparin was added to any of the samples. The gentamicin level was determined by the EMIT technique (16)."}, "[7]": {"set-up": "species or system Male Wistar rats", "conditions": "rat, in vivo", "procedure": "The in situ rat model of Hirai et al (14) was used as modified by Fisher et al (15). Male Wistar rats of about 200 g were anaesthetized by intraperitoneal injection of 60 mg/kg of Pentobarbitone (Sagatal, 60 mg/ml). The rats were tracheotomized, the oesophagus sealed and the carotid artery cannulated.\nA volume of the gentamicin solution containing 0.5% of the drug with and without added lysophosphatidylcholine (LPC) (0.2%) was instilled into the nasal cavity. Blood samples were withdrawn from the carotid artery at 0, 5, 10, 15, 30, 45, 60 and 120 min after drug administration. The gentamicin level was determined by the EMIT method (16)."}, "[8]": {"conditions": "cited from earlier work"}, "[9]": {"test": "Zn-/Na-insulin nasal in rabbits, plasma glucose", "type": "in vivo, New Zealand White rabbits", "conditions": "rabbit; for shape of plasma glucose curves versus s.c.: intranasal microspheres and LPC 2.5 IU/kg versus 0.6 IU/kg s.c.; for plasma glucose levels: intranasal microspheres and LPC, 2.5 IU/kg; for plasma glucose levels versus simple insulin solution: intranasal solution with 0.2% LPC, about 2.3 IU/kg", "procedure": "Preparations of Zn-insulin (mainly hexamer form) or Na-insulin (mainly monomer/dimer forms) were administered nasally to rabbits either as free insulin or as a microsphere delivery system with lysophosphatidylcholine (LPC) as a bioavailability increasing material. The experiments were performed in replicate (n=4).\nNon-fasted New Zealand White female rabbits of average weight 3.5 kg were used in this study.\nA 40 IU/ml Zn- or Na-human insulin solution was prepared in buffer (1/75M Na2 HPO4) of pH 7.3-7.4. In some experiments 0.2% LPC was added.\nA total of 200 μl of the solution (100 μl in each nostril) was administered intranasally equivalent to about 2.3 IU/kg using an Eppendorf pipette.\nThe rabbits were dosed s.c. with insulin at 0.8 IU/kg or 0.6 IU/kg from a 14 IU/ml or 10 IU/ml aqueous solution, respectively.\nThe dose of starch microspheres and insulin was fixed at 2.5 mg/kg and 2.5 IU/kg, respectively. The dose of LPC was 0.2 mg/kg. The average weight of the rabbits was 3.5 kg.\n25 mg of microspheres were placed in a small glass vial and 250 μl of a 100 IU/ml insulin solution (Na- or Zn-insulin) was added followed by the 2 mg LPC and 250 μl of distilled water. The microspheres were then allowed to stand for 2 h at room temperature in contact with the insulin solution before freeze drying.\nApproximately 15 mg of the freeze dried powder from each individual vial was filled into the applicator tubing, and this was stored in a dessicator until use.\nEach rabbit was held on its back during, and for 10 second after, the application to ensure the delivery of the powdered formulation. Blood samples of 200 μl and 2 ml for glucose and insulin determination, respectively, were collected from the marginal ear vein at 10 and 5 min prior to the administration and at 5, 15, 30, 45, 60, 90, 120 and 180 min post-administration. […] The blood samples for glucose analysis were kept on crushed ice awaiting immediate analysis."}, "[10]": {"test": "Maximum loading capacity of albumin microspheres", "type": "physicochemical", "conditions": "emulsion technique", "procedure": "The active agent can be incorporated into the microspheres during their formulation or sorbed into/onto the system after preparation.\nAlbumin microspheres were prepared as described above by an emulsion technique with a stirring speed of 900 rpm and the model drug dissolved in the albumin solution at various concentrations.\nConcentrations of 0.5, 2, 4 and 5% w/v Rose bengal were used. […] Due to the solution characteristics of sodium cromoglycate in water the highest concentration that could be used was […]. Thus, microspheres were manufactured from solutions containing 0.5, 1, 2 and 4% w/v sodium cromoglycate."}, "[11]": {"conditions": "cited from earlier work", "remark": "listed apart in the source"}, "[12]": {"test": "Zn-human insulin nasal, in situ rat model, plasma glucose", "type": "in vivo, male Wistar rats", "procedure": "The Hirai's in situ model (as modified by Fisher) was used to study the nasal absorption of insulin using non-diabetic male Wistar Rats of 150 g fasted overnight. The rats were anaesthetized with an i.p. injection of 0.25 ml of Pentobarbitone (60 mg/ml).\nA 250 IV/ml solution of Zinc (Zn)-human insulin was prepared in buffer (1/75M Na2 HPO4)) of pH 7.3. In some experiments 0.2% of LPC or for comparison 1% Glycodeoxycholate (GDC) were added to the preparation as absorption enhancers. The experiments were performed in replicate (n=4). 10 μl was administered into the nasal cavity equivalent to 16.67 IV/kg (2.5 IV/rat). Blood samples (0.2 ml) were collected into 5 ml fluoride oxalate tubes at 10, 6 and 2 min pre-administration and at 5, 10, 20, 40, 60, 90, 120, 180, 240 and 300 min post-administration. The blood was replaced by saline administered through the jugular vein."}, "[13]": {"conditions": "intranasal solution without enhancer, 1 mg/kg"}, "[14]": {"conditions": "microspheres with lysophosphatidylcholine"}}, "note": "Read-outs that look alike come from different tables or passages of the source."}
{"molecule": "salmon calcitonin", "values": [{"measurement": "plasma calcitonin increase", "setting": "[1]; in combination with a surfactant", "value": "significant increase"}, {"measurement": "AUC increase", "setting": "[1]; with surfactant enhancer", "value": 10, "unit": "fold"}, {"measurement": "plasma calcitonin", "setting": "[1]; without enhancer", "value": "only trace amounts"}]}
{"molecule": "CC(C)NC[C@H](O)COc1cccc2ccccc12", "note": "(racemic) [propanolol]", "values": [{"measurement": "plasma levels", "setting": "[2]", "value": "identical to intravenous administration"}]}
{"molecule": "hGH: biosynthetic hGH", "values": [{"measurement": "nasal absorption", "setting": "[3]; [13]", "value": "not absorbed at any significant degree"}, {"measurement": "plasma level peak", "setting": "[3]; [13]", "value": "about 3.5 ng/ml"}, {"measurement": "effect of 0.05% LPC on absorption", "setting": "[3]; intranasal with 0.05% LPC", "value": "no effect"}, {"measurement": "AUC", "setting": "[3]; intranasal with 0.5% LPC", "value": "very significant increase"}, {"measurement": "plasma level peak", "setting": "[3]; intranasal with 0.5% LPC, 1 mg/kg", "value": "about 57 ng/ml"}, {"measurement": "bioavailability versus subcutaneous injection", "setting": "[4]", "value": "about 20%"}, {"measurement": "plasma level with microspheres and LPC", "setting": "[4]", "value": "increased considerably"}, {"measurement": "shape of profile", "setting": "[4]; sc", "value": "flatter profile"}, {"measurement": "enhancement concept, outcome", "setting": "[5]; [14]", "value": "successful"}]}
{"molecule": "gentamicin", "values": [{"measurement": "bioavailability versus IV dose", "setting": "[6]", "value": 57.3, "unit": "%"}, {"measurement": "peak blood level", "setting": "[6]", "value": 0.4, "unit": "µg/mL"}, {"measurement": "bioavailability", "setting": "[7]", "value": "poor bioavailability"}, {"measurement": "peak level relative to solution alone", "setting": "[7]", "value": "five fold greater"}, {"measurement": "enhancement concept, outcome", "setting": "[5]; in vivo", "value": "successful"}, {"measurement": "nasal absorption", "setting": "[8]; into the nose, without enhancer", "value": "poorly absorbed"}, {"measurement": "biological availability with bile salts", "setting": "[8]; nasal, added bile salts", "value": "enhanced"}]}
{"molecule": "Na-insulin: Na-insulin (mainly monomer/dimer forms)", "values": [{"measurement": "shape of plasma glucose curves versus s.c.", "setting": "[9]", "value": "surprisingly similar to the ones obtained for the s.c. administration"}, {"measurement": "plasma glucose levels", "setting": "[9]", "value": "even more drastic decreases"}, {"measurement": "plasma glucose levels versus simple insulin solution", "setting": "[9]", "value": "lowered significantly"}]}
{"molecule": "NC(=O)CC[C@@H]1NC(=O)[C@H](Cc2ccccc2)NC(=O)[C@H](Cc2ccc(O)cc2)NC(=O)CCSSC[C@@H](C(=O)N2CCC[C@H]2C(=O)N[C@H](CCCN=C(N)N)C(=O)NCC(N)=O)NC(=O)[C@H](CC(N)=O)NC1=O", "note": "[DDVAP, reference compound]", "values": [{"measurement": "enhancement concept, outcome", "setting": "[5]; in vivo", "value": "successful"}]}
{"molecule": "calcitonin: calcitonin [reference compound]", "values": [{"measurement": "enhancement concept, outcome", "setting": "[5]; [14]", "value": "successful"}]}
{"molecule": "O=C(O)c1cc(=O)c2c(OCC(O)COc3cccc4oc(C(=O)O)cc(=O)c34)cccc2o1", "note": "[sodium cromoglycate]", "values": [{"measurement": "maximum loading capacity", "setting": "[10]", "value": "137 μg per mg albumin microspheres"}]}
{"molecule": "O=C([O-])c1c(Cl)c(Cl)c(Cl)c(Cl)c1-c1c2cc(I)c(=O)c(I)c-2oc2c(I)c([O-])c(I)cc12.[Na+].[Na+]", "note": "[Rose bengal]", "values": [{"measurement": "maximum loading capacity", "setting": "[10]", "value": "170 μg per mg albumin microspheres"}]}
{"molecule": "CC(=O)[C@H]1CC[C@H]2[C@@H]3CCC4=CC(=O)CC[C@]4(C)[C@H]3CC[C@]12C", "note": "[progesterone]", "values": [{"measurement": "time of peak concentration", "setting": "[11]; nasal route", "value": "approximately 6 minutes"}, {"measurement": "bioavailability, oral", "setting": "[11]; oral route, compared to IV administration", "value": "~1.2", "unit": "%"}, {"measurement": "effectiveness, oral", "setting": "[11]; oral route", "value": "largely ineffective"}]}
{"molecule": "Zn-insulin: Zn-insulin (mainly hexamer form)", "values": [{"measurement": "shape of plasma glucose curves versus s.c.", "setting": "[9]", "value": "surprisingly similar to the ones obtained for the s.c. administration"}, {"measurement": "plasma glucose levels", "setting": "[9]", "value": "even more drastic decreases"}, {"measurement": "plasma glucose levels versus simple insulin solution", "setting": "[9]", "value": "lowered significantly"}, {"measurement": "lowering of plasma glucose level", "setting": "[12]; intranasal simple solution", "value": "not effective"}, {"measurement": "plasma glucose level", "setting": "[12]; intranasal, with 0.2% LPC", "value": "fast and significant drop"}]}
{"molecule": "B1", "values": [{"measurement": "enhancement concept, outcome", "setting": "[5]; [14]", "value": "successful"}]}
